These results are taken from patent publication US20090062240A1, “Pharmaceutical combinations containing an inhibitor of platelet aggregation and a fibrate” (Fournier Laboratories Ireland Limited, priority 2004, published 2009).

The assay concerns rat platelet aggregation. The assay is described as follows: Ex-vivo rat platelet aggregation induced by arachidonic acid after oral treatment (Born's method, PRP). The following applies: for % aggregation upon addition of 1 mM arachidonic acid: rat PRP, mean, n = 8; for reduction in platelet aggregation (in words): 1 mM arachidonic acid. In kind it is in vivo. How it is done: A study was carried out to assess the effect of a combination of a fibrate (fenofibrate) and aspirin on platelet aggregation in this study, fenofibrate and aspirin were co-administered to rats by the oral route (p.o.) and the effects on arachidonic acid-induced platelet aggregation were observed.
40 male OFA-SD (IOPS Caw) rats (C.River, France), weighing in the target range of 300 to 350 g, were included in the study.
They were housed in a temperature (19.5-24.5° C.) and relative humidity (45-65%) controlled room with a 12-h light/dark cycle, with ad libitum access to filtered tap-water and standard pelleted laboratory chow (SAFE, France) throughout the study. Upon receipt at animal facilities, they were housed 4 per cage and at least a 5-day acclimatization period was observed. Animals were individually identified on the tail.
The animals of this study were split into 5 groups of 8 animals as follows:
Group 2: Fenofibrate, 300 mg/kg, p.o.×10 days
Group 3 Aspirin 3 mg/kg, p.o.×1 day
Group 4: Fenofibrate, 300 mg/kg, p.o×10 days+Aspirin 3 mg/kg, p.o.×1 day
Group 5: Aspirin 30 mg/kg, p.o.×1 day
At the end of the acclimatization period, rats were identified on the tail and divided into 10 boxes of 4 rats.
They were then weighed and treated orally once a day during ten consecutive days with the vehicle (1% methylcellulose aqueous solution) or the test substance fenofibrate. On the last day of treatment, the animals were also treated with aspirin as described above. Aspirin (acetyl saliclylic acid) was obtained from Sigma, France and fenofibrate was supplied by Laboratoires Fournier, France. Test substances and the vehicle were administered by p.o. route once a day, in a volume of 5 ml/kg adjusted to the animal weight measured every day before administration.
On the last day of treatment (day 10), 2 hours after the oral gavage, rats were anaesthetised with isoflurane, and blood samples were collected from the abdominal aorta into plastic tubes containing heparin.
PRP (platelet-rich plasma) was then produced by centrifuging the blood obtained at 250 g for 10 minutes using a GPKR centrifuge (Beckman, France). Then samples were then centrifuged again at 2000 g for 10 minutes to obtain the platelet-poor plasma (PPP).
After a platelet count, each PRP sample was adjusted to 6×10^8 platelets/mL with the needed volume of homologous PPP (using T540 Cell Counter, Beckman, France).
Platelet aggregation was recorded using Born's method (Born, Nature, 1962, 194, 927-929) with 0.3 mL of the platelet suspension in disposable glass cuvettes placed in the turbidometric aggregometer (Chrono-Dual 440 aggregometer, Beckman Coulter, France) and stirred at 1100 rev.min^−1 at 37° C.
Platelet aggregation was induced by Arachidonic acid [AA] for each PRP sample tested.
Results were reported as the aggregation amplitude measured in mm and expressed as percentage of maximal aggregation.
Statistical analysis consisted in a one-way analysis of variance followed by multiple comparisons versus the vehicle group (Dunnett's test) on % aggregation values. Where the equal variance test failed, a Kruskall-Wallis one-way analysis of variance on ranks was proposed. A difference is considered significant for p<0.05.

On to `CC(C)OC(=O)C(C)(C)Oc1ccc(C(=O)c2ccc(Cl)cc2)cc1` [Fenofibrate, 2-[4-(4-chlorobenzoyl)phenoxy]-2-methyl-propanoic acid, 1-methylethyl ester], for which the “% aggregation upon addition of 1 mM arachidonic acid” value (Fenofibrate 300 mg/kg p.o. x 10 days, blood 2 h after last gavage) was determined as 94.2%. For the same compound, the “reduction in platelet aggregation (in words)” value (fenofibrate alone (300 mg/kg)) is recorded as “no reduction in platelet aggregation”.

As for `CC(=O)Oc1ccccc1C(=O)O` [Aspirin, Acetylsalicylic acid], the “% aggregation upon addition of 1 mM arachidonic acid” value is, setting by setting: (Aspirin 3 mg/kg p.o. x 1 day, blood 2 h after gavage) 85.0%; (Aspirin 30 mg/kg p.o. x 1 day, p < 0.05 vs Control) 0.4%. Further, the “reduction in platelet aggregation (in words)” value (aspirin alone at 3 mg/kg) is “no reduction in platelet aggregation”.
